Records with an inconclusive call do not appear. Calls of active or inactive are those of the source.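 The calls were made as follows: active = falling-signal curve with half-maximal concentration at or below ten times the top tested dose; inconclusive = flat fit at 30 to 70% inhibition, or poor fit; inactive = signal rise, flat within 30%, or potency beyond limit.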
The compounds below were run on NIH3T3 R4 HSE-GFP/Tet-RFP reporter, fluorescence, 48 h (assay: dox-induced RFP signal loss in R4-3T3 cells – cell-based, NIH3T3 R4, HSE-GFP and Tet-On RFP, cherry-pick, set 3, dose response (AID 493085);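 also: cells heat shocked 2 h at 42 °C with doxycycline to induce reporters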).
For `CSc1ccc(CN(C)Cc2cc(=O)oc3c(C)c(C)ccc23)cc1`, the AC50 was 17.1 µM.
In the case of `CCc1ccccc1NC(=O)CSc1nnc(-c2ccncc2)o1`, the AC50 is reported as > 19.5 µM (inactive).
`CCc1ccc(C(=O)Cn2ncc(Cl)c(Cl)c2=O)cc1` was tested, and the AC50 was 18.6 µM.
With `CC(=O)OCCCNc1cc(Sc2ccc(C)cc2)c2nonc2c1[N+](=O)[O-]` the AC50 was 18.7 µM.
`Cc1ccc(-n2ncc(Br)c(Br)c2=O)cc1` was tested, and the AC50 was 18.3 µM.
With `C(=N\NC1=Nc2cccc3cccc1c23)/c1ccccn1` the AC50 was 0.95 µM.
Work on `COc1ccc(N(Cc2cc3cc(OC)ccc3[nH]c2=O)S(=O)(=O)c2ccc(NC(C)=O)cc2)cc1` yielded an AC50 of 14.3 µM.
`c1ccc2c(c1)OCC(c1csc3ncnc(N4CCOCC4)c13)O2` (configuration not stated) was tested, and the AC50 was 16.6 µM.
With `Fc1ccc(-n2cc(-c3ccccc3)c3c(N4CCOCC4)ncnc32)cc1` the AC50 was 6.34 µM.
With `CN=C1S/C(=C\c2cc(C)n(-c3ccccc3F)c2C)C(=O)N1C` the AC50 was 16.5 µM.
`Cc1cc(C)c2nc(C(F)(F)F)c(C#N)c(N)c2c1` showed an AC50 of 1.54 µM.
`O=C(Nc1nc(-c2cccs2)cs1)c1cccc(S(=O)(=O)N2CCCCCC2)c1` showed an AC50 of 0.674 µM.
`Cc1nc2c(-c3ccccc3)cnn2c(N)c1-c1ccccc1` was tested, and the AC50 was > 19.5 µM (inactive).
Work on `CCOC(=O)c1ccc(-n2[nH]c(-c3ccccc3)cc2=O)cc1` yielded an AC50 of 4.13 µM.
`CC[C@H]1CN2CCc3cc(OC)c(OC)cc3[C@@H]2C[C@@H]1C[C@H]1NCCc2cc(OC)c(OC)cc21` showed an AC50 of 0.549 µM.
In the case of `C#CC(=O)N(c1cc(OC)ccc1OC)C(C(=O)NC1CCCC1)c1cccs1` (configuration not stated), the AC50 is reported as 5.39 µM.
`CCOC(=O)c1c(C)[nH]c2c1-c1ccccc1C(=O)C2=O` gave an AC50 of 1.07 µM.
`CCC(Sc1nc(C)cc(C)n1)C(=O)NC1=NN=C(c2ccc(C)cc2)CS1` (configuration not stated) was tested, and the AC50 was 14.8 µM.
In the case of `O=S(=O)(c1ccc2c(c1)C(=NO)c1cc(S(=O)(=O)N3CCCCC3)ccc1-2)N1CCCCC1`, the AC50 is reported as 2.9 µM.
With `Cn1c(C(C#N)C(=O)c2sc3ccccc3c2Cl)nc2ccccc21` (configuration not stated) the AC50 was > 19.5 µM (inactive).
`CCCCN(C(=O)COc1ccc(C)cc1OC)c1c(N)n(CCC)c(=O)[nH]c1=O` was tested, and the AC50 was > 19.5 µM (inactive).
Work on `O=[N+]([O-])c1ccc(S(=O)(=O)c2ccccc2)nc1` yielded an AC50 of 19.3 µM.
For `O=C(CCl)Nc1ccc(Sc2ccc(NC(=O)CCl)cc2)cc1`, the AC50 was 18.3 µM.
With `CC(C)(C)c1nn(-c2ccccc2)c2[nH]c(=O)c(CNc3ccc4c(c3)OCCO4)cc12` the AC50 was > 19.5 µM (inactive).
Compound `COc1c(N2CCN(C(=S)NC3CC4CCC3C4)C(C)C2)c(F)cc2c(=O)c(C(=O)O)cn(C3CC3)c12` (configuration not stated) has an AC50 of 17.9 µM.
With `CCOC(=O)Cc1nnc2c(Nc3ccccc3F)nc3nonc3n12` the AC50 was 2.32 µM.
With `COc1ccccc1-c1cc(C(F)(F)F)nc(S(=O)(=O)CCCC(=O)NCc2ccc(F)cc2)n1` the AC50 was 5.34 µM.
`CCCCCCc1cc2cc(S(=O)(=O)c3ccc(F)c(Cl)c3)c(=O)oc2cc1O` was tested, and the AC50 was 1.52 µM.
In the case of `N#CCc1nn(-c2ccccc2)c2ncnc(N)c12`, the AC50 is reported as > 19.5 µM (inactive).
In the case of `CCc1cc(C)cc(OCCNC(=O)c2cncc(Br)c2)c1`, the AC50 is reported as > 19.5 µM (inactive).
Compound `COc1ccc(C)cc1NS(=O)(=O)c1ccc(-c2cnc(C3CC3)o2)cc1` has an AC50 of 2.11 µM.
`O=C(CCl)N(c1ccccc1)C1CCCCC1` was tested, and the AC50 was 4.93 µM.
`O=C(CCl)Nc1cc(SCC(O)CO)cc([N+](=O)[O-])c1` (configuration not stated) was tested, and the AC50 was 13.7 µM.
`COC(=O)/C(=C1/Oc2cc(C)oc(=O)c2S1)C(F)(F)F` was tested, and the AC50 was 1.5 µM.
Work on `O=C1C(Nc2ccccc2)=C/C(=N/S(=O)(=O)c2cccs2)c2ccccc21` yielded an AC50 of 9.58 µM.
`CC12CCC(C/C1=N\N=C1\NC(=O)/C(=C\c3ccc(Cl)cc3)S1)C2(C)C` (configuration not stated) was tested, and the AC50 was 1.82 µM.
`NNC(=O)c1ccc(N2CCc3ccccc32)c([N+](=O)[O-])c1` was tested, and the AC50 was > 19.5 µM (inactive).
`CCCC(=O)N1CCN(c2ccc(NC(=O)c3cc4ccccc4o3)cc2Cl)CC1` gave an AC50 of 13.1 µM.
With `Cc1cc(C)c(NC(=O)CSc2nncn2-c2cccnc2)c(C)c1` the AC50 was > 19.5 µM (inactive).
In the case of `CC(=O)c1cn(CC(=O)Nc2ccccc2C)c2ccccc12`, the AC50 is reported as 2.59 µM.
`COc1ccc(OCc2cccc(C(=O)Nn3cc([N+](=O)[O-])cn3)c2)cc1` was tested, and the AC50 was 9.72 µM.
In the case of `CCOC(=O)c1sc(NC(=O)CSc2n[nH]c(-c3ccccc3)n2)c(C#N)c1C`, the AC50 is reported as 14.6 µM.
`Cn1c(=O)c([N+](=O)[O-])c(Cl)c2ccccc21` gave an AC50 of 11.4 µM.
For `Cc1ccc(-c2cn(-c3ccccc3)c(=S)[nH]2)cc1C`, the AC50 was > 19.5 µM (inactive).
Work on `CN1C(C(=O)Nc2ccc(OC(F)(F)F)cc2)=CC(c2cccs2)=NS1(=O)=O` yielded an AC50 of 17.7 µM.
In the case of `COc1ccc(NC(=O)CSc2nnc3ccc(-c4ccncc4)nn23)cc1OC`, the AC50 is reported as > 19.5 µM (inactive).
`Cc1[nH]c2ccccc2c1/C=C/c1nc2ccccc2c(=O)n1-c1cccc([N+](=O)[O-])c1` was tested, and the AC50 was > 19.5 µM (inactive).

— PubChem BioAssay AID493085 (Broad Institute, 2011)
